Experiments:
[1] = target: T1, type 1 ryanodine receptor (RyR1) (Oryctolagus cuniculus, UniProt P11716); assay: intracellular calcium assay in HEK […] cells with RyR1 WT and point mutants; format: cell-based; set-up: full-length rabbit RyR1
[2] = target: T1, type 1 ryanodine receptor (RyR1); assay: cell-based; set-up: full-length rabbit RyR1; species or system HEK 293; fluorescent calcium indicator assay, peak Fmax/F0, tetracycline-induced RyR1 expression, 384-well plate
Experimental: There are three isoforms of RyRs in mammals (RyR1, RyR2, and RyR3). To systematically examine the pharmacological properties of each isoform, we used HEK 293 cell lines that express rabbit isoforms under tetracycline regulation. These cells were seeded in a 384-well plate and subjected to an assay in which the intracellular calcium levels were measured using a fluorescent calcium indicator upon drug administration (Fig 1B and 1C). While caffeine is a stimulant that antagonizes the adenosine receptors (IC50s on adenosine receptors are ~10 μM), it is also a typical agonist of RyRs activating all isoforms at higher dosages. Caffeine administration caused dose-dependent increases in intracellular calcium levels depending on the tetracycline-mediated expression of each isoform (Figs 1D–1F and S1A). We observed that, while caffeine causes calcium elevation in the nonexpressed controls, most likely due to the presence of endogenous RyRs in HEK 293 cells, the distinct signals in the expressed conditions indicate that each isoform is successfully expressed as functional channels. Supplementary file pbio.3003172.s001.pdf: S1 Fig Increased intracellular calcium by isoflurane is derived from intracellular calcium stores. […] Each agent was given after measuring the baseline fluorescence for 10 s, as indicated by arrows. […]

[3] = target: T1, type 1 ryanodine receptor (RyR1); assay: intracellular calcium assay in HEK […] cells; caffeine-site point mutants; format: cell-based; set-up: full-length rabbit RyR1
[4] = target: T1, type 1 ryanodine receptor (RyR1); assay: intracellular calcium assay in HEK […] stable cell line; format: cell-based; set-up: full-length rabbit RyR1
[5] = target: T1, type 1 ryanodine receptor (RyR1); assay: intracellular calcium (Cal-520) assay in HEK […] cells with tetracycline-induced RyR1; chimeras and point mutants; format: cell-based; set-up: full-length rabbit RyR1; RyR1 Q3889-S4213 necessary and sufficient for the response
mouse RyR1(WT) = target: T2, mouse RyR1(WT) (Mus musculus, UniProt E9PZQ0); assay: intracellular calcium assay in HEK […] cells; response lost in M4003F; format: cell-based
T2 construct: full-length mouse RyR1

[6] = target: T1, type 1 ryanodine receptor (RyR1); assay: intracellular calcium assay in HEK […] stable cell line; response lost in M4000F; format: cell-based; set-up: full-length rabbit RyR1
[7] = target: T1, type 1 ryanodine receptor (RyR1); assay: intracellular calcium assay in HEK […] stable cell line; compared with M4000F; format: cell-based; set-up: full-length rabbit RyR1(WT)
[8] = target: T1, type 1 ryanodine receptor (RyR1); assay: intracellular calcium assay in HEK […] stable cell lines; selective over M4000F, RyR2, RyR3; format: cell-based; set-up: full-length rabbit RyR1(WT)
[9] = target: T1, type 1 ryanodine receptor (RyR1); assay: intracellular calcium assay in HEK […] cells; selectivity over M4000F; format: cell-based; set-up: full-length rabbit RyR1

T1 sequence (P11716 whole entry): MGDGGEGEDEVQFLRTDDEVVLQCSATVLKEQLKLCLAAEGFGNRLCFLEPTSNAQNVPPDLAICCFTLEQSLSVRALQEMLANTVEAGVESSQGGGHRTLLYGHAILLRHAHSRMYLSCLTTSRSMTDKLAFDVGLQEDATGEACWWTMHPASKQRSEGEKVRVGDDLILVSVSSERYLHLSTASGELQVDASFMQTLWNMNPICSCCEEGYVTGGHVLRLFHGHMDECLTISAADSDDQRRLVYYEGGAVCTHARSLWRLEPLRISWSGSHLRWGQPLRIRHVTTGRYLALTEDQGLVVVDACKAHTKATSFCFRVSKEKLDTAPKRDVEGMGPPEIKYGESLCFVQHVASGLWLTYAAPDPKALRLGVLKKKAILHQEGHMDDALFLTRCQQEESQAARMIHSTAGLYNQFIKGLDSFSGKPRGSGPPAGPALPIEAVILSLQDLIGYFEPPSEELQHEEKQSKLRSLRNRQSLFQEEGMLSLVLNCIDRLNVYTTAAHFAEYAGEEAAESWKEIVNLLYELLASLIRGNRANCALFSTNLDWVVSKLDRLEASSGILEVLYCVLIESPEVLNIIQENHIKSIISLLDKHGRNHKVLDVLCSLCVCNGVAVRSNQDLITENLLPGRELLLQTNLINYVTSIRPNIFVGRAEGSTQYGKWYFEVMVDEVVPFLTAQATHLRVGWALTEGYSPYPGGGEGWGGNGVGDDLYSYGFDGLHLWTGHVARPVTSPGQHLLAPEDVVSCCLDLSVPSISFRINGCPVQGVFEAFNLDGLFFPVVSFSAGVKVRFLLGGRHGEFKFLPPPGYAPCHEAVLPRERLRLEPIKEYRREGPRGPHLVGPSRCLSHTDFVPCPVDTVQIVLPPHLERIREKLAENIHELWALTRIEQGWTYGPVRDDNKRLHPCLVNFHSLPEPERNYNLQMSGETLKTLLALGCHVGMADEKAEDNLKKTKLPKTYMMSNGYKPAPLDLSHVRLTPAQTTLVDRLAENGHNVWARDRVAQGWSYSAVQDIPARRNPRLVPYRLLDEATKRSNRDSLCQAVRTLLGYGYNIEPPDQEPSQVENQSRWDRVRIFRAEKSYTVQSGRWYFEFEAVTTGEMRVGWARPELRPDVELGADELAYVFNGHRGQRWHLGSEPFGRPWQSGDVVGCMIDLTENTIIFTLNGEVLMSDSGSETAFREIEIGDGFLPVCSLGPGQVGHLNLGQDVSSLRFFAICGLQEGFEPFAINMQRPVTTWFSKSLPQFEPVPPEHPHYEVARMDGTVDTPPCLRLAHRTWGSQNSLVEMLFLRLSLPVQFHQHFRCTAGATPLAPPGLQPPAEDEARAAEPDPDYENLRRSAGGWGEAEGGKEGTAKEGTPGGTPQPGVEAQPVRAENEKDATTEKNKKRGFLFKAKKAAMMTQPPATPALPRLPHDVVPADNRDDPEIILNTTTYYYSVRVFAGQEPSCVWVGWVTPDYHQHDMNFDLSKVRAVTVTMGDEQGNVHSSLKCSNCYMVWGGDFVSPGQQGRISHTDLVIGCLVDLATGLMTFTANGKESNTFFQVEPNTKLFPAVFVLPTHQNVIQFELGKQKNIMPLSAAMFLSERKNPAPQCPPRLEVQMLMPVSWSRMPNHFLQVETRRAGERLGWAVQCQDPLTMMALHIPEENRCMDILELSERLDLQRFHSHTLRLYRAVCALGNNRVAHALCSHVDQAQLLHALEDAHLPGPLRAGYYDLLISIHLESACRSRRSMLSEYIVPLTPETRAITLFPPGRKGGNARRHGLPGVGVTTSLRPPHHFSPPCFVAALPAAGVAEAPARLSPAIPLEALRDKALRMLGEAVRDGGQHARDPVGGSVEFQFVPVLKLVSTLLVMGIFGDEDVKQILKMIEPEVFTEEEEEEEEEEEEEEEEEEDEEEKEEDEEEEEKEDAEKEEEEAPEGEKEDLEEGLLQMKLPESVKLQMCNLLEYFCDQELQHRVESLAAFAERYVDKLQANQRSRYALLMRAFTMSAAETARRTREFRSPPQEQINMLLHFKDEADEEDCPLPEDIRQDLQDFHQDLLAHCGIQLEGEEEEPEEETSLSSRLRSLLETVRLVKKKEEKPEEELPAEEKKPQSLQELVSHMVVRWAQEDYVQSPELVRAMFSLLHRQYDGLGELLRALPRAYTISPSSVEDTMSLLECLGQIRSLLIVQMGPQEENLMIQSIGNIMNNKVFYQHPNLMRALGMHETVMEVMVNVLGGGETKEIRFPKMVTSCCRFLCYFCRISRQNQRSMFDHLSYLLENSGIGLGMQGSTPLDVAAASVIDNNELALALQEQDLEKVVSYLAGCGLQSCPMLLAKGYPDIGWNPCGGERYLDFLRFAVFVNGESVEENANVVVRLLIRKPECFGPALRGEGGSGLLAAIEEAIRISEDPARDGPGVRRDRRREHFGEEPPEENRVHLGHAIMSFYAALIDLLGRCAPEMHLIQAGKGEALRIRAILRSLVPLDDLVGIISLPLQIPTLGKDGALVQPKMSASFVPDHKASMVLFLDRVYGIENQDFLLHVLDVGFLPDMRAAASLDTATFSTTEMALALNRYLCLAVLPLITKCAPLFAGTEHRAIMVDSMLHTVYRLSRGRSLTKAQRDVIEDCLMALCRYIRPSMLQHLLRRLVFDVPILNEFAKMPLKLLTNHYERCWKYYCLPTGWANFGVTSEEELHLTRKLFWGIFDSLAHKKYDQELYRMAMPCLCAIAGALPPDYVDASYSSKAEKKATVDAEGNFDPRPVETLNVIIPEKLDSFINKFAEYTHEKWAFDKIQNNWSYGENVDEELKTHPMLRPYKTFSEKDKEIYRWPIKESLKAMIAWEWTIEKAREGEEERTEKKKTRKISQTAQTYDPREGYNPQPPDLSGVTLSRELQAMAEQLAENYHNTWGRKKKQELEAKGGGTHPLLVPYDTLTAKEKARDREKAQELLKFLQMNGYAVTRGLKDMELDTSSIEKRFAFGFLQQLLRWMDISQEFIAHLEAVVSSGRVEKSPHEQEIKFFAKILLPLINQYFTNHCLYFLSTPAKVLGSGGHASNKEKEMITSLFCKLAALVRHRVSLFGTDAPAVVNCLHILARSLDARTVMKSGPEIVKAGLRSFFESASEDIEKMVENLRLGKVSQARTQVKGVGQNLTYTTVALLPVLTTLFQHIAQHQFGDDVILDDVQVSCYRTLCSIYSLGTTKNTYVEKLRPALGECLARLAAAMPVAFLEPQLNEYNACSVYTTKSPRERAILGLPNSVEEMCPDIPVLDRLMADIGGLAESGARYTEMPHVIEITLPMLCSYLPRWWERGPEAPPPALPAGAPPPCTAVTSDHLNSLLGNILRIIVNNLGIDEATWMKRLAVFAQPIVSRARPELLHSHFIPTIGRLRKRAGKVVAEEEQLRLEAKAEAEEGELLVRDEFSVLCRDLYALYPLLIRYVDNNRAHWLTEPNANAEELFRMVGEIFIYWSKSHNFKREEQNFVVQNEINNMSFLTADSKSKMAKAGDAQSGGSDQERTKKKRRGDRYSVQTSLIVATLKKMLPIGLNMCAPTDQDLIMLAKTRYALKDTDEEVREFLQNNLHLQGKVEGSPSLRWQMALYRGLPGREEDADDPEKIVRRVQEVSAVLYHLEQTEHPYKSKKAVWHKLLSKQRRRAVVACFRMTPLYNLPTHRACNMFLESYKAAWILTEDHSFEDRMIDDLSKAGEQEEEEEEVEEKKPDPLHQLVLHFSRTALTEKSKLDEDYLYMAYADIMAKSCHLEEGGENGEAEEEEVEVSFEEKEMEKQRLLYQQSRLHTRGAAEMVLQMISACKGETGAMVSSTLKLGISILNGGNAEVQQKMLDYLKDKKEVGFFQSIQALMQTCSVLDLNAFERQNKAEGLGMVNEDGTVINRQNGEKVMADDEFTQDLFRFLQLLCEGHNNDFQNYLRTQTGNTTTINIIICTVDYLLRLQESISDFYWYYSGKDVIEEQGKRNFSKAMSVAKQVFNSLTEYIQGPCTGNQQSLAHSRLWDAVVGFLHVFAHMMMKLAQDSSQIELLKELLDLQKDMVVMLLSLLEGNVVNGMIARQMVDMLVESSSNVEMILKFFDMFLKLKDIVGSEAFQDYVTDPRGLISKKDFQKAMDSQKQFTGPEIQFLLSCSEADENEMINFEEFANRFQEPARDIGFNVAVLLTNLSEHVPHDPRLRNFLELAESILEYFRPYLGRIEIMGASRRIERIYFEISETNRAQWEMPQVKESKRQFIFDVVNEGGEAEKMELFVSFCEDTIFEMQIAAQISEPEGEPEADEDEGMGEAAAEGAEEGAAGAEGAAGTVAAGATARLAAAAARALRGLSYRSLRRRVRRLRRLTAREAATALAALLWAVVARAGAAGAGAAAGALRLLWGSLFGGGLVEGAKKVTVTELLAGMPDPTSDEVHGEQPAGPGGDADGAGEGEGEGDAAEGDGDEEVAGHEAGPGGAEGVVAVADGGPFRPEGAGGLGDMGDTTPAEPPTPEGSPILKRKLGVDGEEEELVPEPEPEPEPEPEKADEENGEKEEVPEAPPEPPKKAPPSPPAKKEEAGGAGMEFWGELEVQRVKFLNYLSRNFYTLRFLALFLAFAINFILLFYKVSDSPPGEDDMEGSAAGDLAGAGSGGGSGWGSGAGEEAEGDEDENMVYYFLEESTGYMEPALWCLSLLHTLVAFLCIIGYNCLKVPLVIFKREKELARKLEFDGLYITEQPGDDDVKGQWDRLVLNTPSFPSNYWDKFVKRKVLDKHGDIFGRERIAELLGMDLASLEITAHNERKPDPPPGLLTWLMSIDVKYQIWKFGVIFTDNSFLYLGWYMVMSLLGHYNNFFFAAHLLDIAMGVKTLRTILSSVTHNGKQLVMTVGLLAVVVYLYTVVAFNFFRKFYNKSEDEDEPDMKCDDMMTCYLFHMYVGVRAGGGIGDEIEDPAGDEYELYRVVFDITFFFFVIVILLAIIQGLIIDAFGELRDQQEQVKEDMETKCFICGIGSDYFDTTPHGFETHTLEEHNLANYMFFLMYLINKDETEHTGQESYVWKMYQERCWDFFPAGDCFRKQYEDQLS

With `Cc1cc(O)ccc1Cl` [4-CmC, 4-chloro-m-cresol] the “intracellular calcium assay in HEK 293T cells with RyR1 WT and point mutants” value [1] was “substitution of phenylalanine with alanine (F4062A) substantially reduced the sensitivities to both 4-CmC and isoflurane”.

For `CCc1ccc(O)cc1` [4-EP, 4-ethylphenol], the EC50 [2] was 24 µM.

With `Cn1c(=O)c2c(ncn2C)n(C)c1=O` [caffeine] the “intracellular calcium assay in HEK 293 cells; caffeine-site point mutants” value [3] was “RyR1(W4716I), RyR1(W4716L), and RyR1(F3753A) were insensitive to caffeine but were activated by isoflurane”.

In the case of `FC(F)(F)C(Cl)Br` (centres unmarked) [halothane], the EC50 [4] is reported as 288 µM.

With `FC(F)OC(Cl)C(F)(F)F` (centres unmarked) [isoflurane] the EC50 [5] was 203 µM and the “intracellular calcium assay in HEK 293 cells; response lost in M4003F” value (mouse RyR1(WT)) was “mouse RyR1(WT) was sensitive to isoflurane, as expected, whereas mouse RyR1(M4003F) was not activated by isoflurane”.

`FCOC(C(F)(F)F)C(F)(F)F` [sevoflurane] was tested, and the “intracellular calcium assay in HEK 293 stable cell line; response lost in M4000F” value [6] was “sevoflurane, an inhaled anesthetic with clinical use, activated RyR1 but not RyR2 and RyR3”.

`Oc1ccc(Br)cc1` [4-BP, 4-bromophenol] was tested, and the EC50 [7] was 4.7 µM.

For `Oc1cccc(Br)c1` [3-BP, 3-bromophenol], the “intracellular calcium assay in HEK 293 stable cell lines; selective over M4000F,” value [8] was 3-bromophenol (3-BP) has higher selectivity for RyR1(WT) than RyR1(M4000F), RyR2, or RyR3.

For `Cc1ccc(O)cc1` [4-MP, 4-methylphenol], the “intracellular calcium assay in HEK 293 cells; selectivity over M4000F” value [9] was 4-methylphenol (4-MP) and 4-ethylphenol (4-EP), phenolic chemicals with a methyl or ethyl residue and the EC50 [2] was 31 µM.
